# Experiments:
# Na^+K^+ATPase = details: rat renal tubule cells; cited from earlier work
# [1] = test system: glucose-induced vascular dysfunction; details: cited from earlier work; for normalization (%) of 30 mM glucose-induced vascular dysfunction: rats, FIG. 1 adapted from Ido et al. 1997; for potency on vascular dysfunction relative to native C-peptide / prevention of vascular dysfunction (active / inactive): skin chamber granulation tissue model in rats
# [2] = test system: human renal tubular cells; details: cited from earlier work
# [3] = test system: cell membrane-bound C-peptide; details: cited from earlier work
# [4] = test system: MAP kinase signaling pathways; details: cited from earlier work
# [5] = biological target: human elastin receptor (elastin binding protein, EBP) on CD4+ immune cells (human)
# CD4+ immune cells = assay: classical Boyden chamber experiment, migration of CD4+ immune cells; assay type: cell-based; details: V14-peptide at 1.3 microM; C-peptide at 10 nM
# Description: Moreover, additional examples of fragments of the human C-peptide are provided herein and ^14, all bearing a mid-portion hexapeptide 12 SEQ ID NO:34 (LGGGPG) 17, that all prevented vascular dysfunction whereas other human C-peptide fragments, wherein the hexapeptide mid-portion was disrupted, were found not active. […] Human C-peptide and its xGxxPG containing fragments may thus be considered an unexpected species of the genus of a larger class of peptides: elastin peptides capable of elastin receptor activation, whereby excess C-peptide may be meddling with elastin receptor mediated tissue repair, modulating chronic-low grade inflammation, IR and hypertension. […] This provides a substantial jump in our understanding of the causes of metabolic syndrome and other lifestyle- or age-related conditions of IR. […] It is provided to do these tests with synthetic human C-peptide variants or fragments, provided with or without the sequence GxxP, to study binding, including classical elastin receptor antagonist V14 peptide to study inhibition of binding. Similarly, one can do the C-peptide tests in a skin chamber granulation tissue model of vascular function ^14, or test synthetic, inducibly or constitutively expressed C-peptide in established models of atherosclerosis, Neu-1 mediated IR or PPCA mediated hypertension ^7-9.
# bioactivity of C-peptide = assay: preliminary in-vitro inhibition of bioactivity of C-peptide; details: preliminary in-vitro results
substance,measurement,setting,value
ELGGGPGAG [SEQ ID NO:9],Na^+K^+ATPase activity,Na^+K^+ATPase,stimulate
LGGGPGAGSLQPLALEGSLQ [SEQ ID NO:14],normalization (%) of 30 mM glucose-induced vascular dysfunction,[1],significant normalization
QLSGELALPQLSGAGPGGGLEVQGVQLDEAE (retro C-peptide),potency on vascular dysfunction relative to native C-peptide,[1],equipotent to native C-peptide
GQVELGGGPGAGSLQPLALEGSLQ [SEQ ID NO:13],normalization (%) of 30 mM glucose-induced vascular dysfunction,[1],significant normalization
GGGPGAG [SEQ ID NO:8],normalization (%) of 30 mM glucose-induced vascular dysfunction,[1],normalize
EVEDPQVPQLELGGGPEAGDLQTLALEVARQ [Rat C-peptide],prevention of vascular dysfunction (active / inactive),[1],active
EAEDLQVGQVELGGGPGAGSLQPL (EAEDLQVGQVELGGGPGAGSLQPLAL) [SEQ ID NO:17],normalization (%) of 30 mM glucose-induced vascular dysfunction,[1],significant normalization
EAENPQAGAVELGGGLGGLQALALEGPPQ [pig C-peptide],prevention of vascular dysfunction (active / inactive),[1],inactive
VGQVELGGGPGAGSLQPL [SEQ ID NO:175],normalization (%) of 30 mM glucose-induced vascular dysfunction,[1],significant normalization
EVARQ [SEQ ID NO:7],intracellular Ca2+,[2],may induce intracellular Ca2+ increases
EGSLQ [SEQ ID NO:6],intracellular Ca2+,[2],may induce intracellular Ca2+ increases
same,displacement of cell membrane-bound C-peptide,[3],displaces
same,MAP kinase signaling pathways,[4],stimulates
DLQVGQVELGGGPGAGSLQPLALEGSLQ [SEQ ID NO:10],normalization (%) of 30 mM glucose-induced vascular dysfunction,[1],significant normalization
ELGGGPGAGSLQPL [SEQ ID NO:176],normalization (%) of 30 mM glucose-induced vascular dysfunction,[1],significant normalization
human C-peptide,migration of CD4+ immune cells in a classical Boyden chamber experiment (% increase of migration),[5],100
VVGSPSAQDEASPL [V14-peptide],"C-peptide-induced CD4-migration inhibited, antagonized and diminished",CD4+ immune cells,> 50%
same,inhibition of bioactivity of C-peptide,bioactivity of C-peptide,inhibition
D--1EAEDLQVGQVELGGGPGAGSLQPLALEGSLQ31 [enantio C-peptide],potency on vascular dysfunction relative to native C-peptide,[1],equipotent to native C-peptide
DLQVGQVELGGGPGAGSLQPL [SEQ ID NO:20],normalization (%) of 30 mM glucose-induced vascular dysfunction,[1],significant normalization
